In ChEMBL document CHEMBL4368915, “Synthesis and Biological Investigation of Phenothiazine-Based Benzhydroxamic Acids as Selective Histone Deacetylase 6 Inhibitors” (J Med Chem, 2019):
One block for each compound: values may come before it. Activity calls are given as the source filed them. No cut-off for these calls is given here.

Experiments:
[1] = target: T1, Protein deacetylase HDAC6 (Homo sapiens, UniProt Q9UBN7)
T1 sequence (Q9UBN7 whole entry): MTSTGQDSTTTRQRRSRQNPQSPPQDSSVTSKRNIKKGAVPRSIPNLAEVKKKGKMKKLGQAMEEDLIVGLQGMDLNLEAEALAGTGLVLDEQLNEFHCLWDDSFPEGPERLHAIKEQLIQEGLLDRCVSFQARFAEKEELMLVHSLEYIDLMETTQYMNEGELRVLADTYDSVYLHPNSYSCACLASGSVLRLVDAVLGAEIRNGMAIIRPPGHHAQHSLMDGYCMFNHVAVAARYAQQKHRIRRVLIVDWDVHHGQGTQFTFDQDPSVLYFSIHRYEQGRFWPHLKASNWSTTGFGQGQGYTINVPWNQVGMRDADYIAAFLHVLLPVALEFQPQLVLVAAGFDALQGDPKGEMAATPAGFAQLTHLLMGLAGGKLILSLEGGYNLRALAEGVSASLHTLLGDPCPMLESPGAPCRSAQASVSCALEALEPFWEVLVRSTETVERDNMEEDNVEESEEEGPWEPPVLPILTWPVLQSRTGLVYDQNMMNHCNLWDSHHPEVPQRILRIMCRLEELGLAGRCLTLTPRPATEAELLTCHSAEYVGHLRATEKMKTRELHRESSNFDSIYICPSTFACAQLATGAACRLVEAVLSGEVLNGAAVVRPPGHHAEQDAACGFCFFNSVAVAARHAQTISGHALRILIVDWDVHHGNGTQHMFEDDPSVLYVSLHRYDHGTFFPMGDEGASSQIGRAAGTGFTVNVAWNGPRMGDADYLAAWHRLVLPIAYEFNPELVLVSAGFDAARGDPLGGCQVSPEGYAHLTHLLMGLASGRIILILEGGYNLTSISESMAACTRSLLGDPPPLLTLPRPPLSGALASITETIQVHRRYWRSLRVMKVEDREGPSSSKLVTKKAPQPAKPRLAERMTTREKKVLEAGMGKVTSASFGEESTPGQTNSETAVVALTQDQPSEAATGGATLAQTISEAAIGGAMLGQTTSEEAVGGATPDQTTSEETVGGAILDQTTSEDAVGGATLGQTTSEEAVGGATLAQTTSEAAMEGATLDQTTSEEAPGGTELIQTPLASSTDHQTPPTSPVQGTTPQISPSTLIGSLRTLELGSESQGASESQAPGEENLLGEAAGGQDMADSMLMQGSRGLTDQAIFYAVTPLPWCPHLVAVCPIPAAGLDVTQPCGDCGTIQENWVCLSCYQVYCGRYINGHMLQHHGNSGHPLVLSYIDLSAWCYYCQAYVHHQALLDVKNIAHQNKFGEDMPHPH

[2] = system: MDA-MB-231; assay: Induction of apoptosis in human MDA-MB-231 cells at 1 to 10 uM after 48 hrs by propidium iodide-staining based FACS analysis; type: functional, cell-based
[3] = system: T-24; assay: Induction of apoptosis in human T24 cells at 1 to 10 uM after 48 hrs by propidium iodide-staining based FACS analysis; type: functional, cell-based
[4] = system: HL-60; assay: Antiproliferative activity against human HL60 cells after 72 hrs by CellTiter blue-reagent based assay; type: functional, cell-based
[5] = system: MCF7; assay: Antiproliferative activity against human MCF7 cells after 72 hrs by CellTiter blue-reagent based assay; type: functional, cell-based
[6] = system: THP-1; assay: Antiproliferative activity against human THP1 cells after 72 hrs by CellTiter blue-reagent based assay; type: functional, cell-based
[7] = target: T2, Histone deacetylase 8 (Homo sapiens) (UniProt Q9BY41); assay: Inhibition of recombinant human HDAC8 expressed in baculovirus expression system at 1 uM using fluorogenic Arg-His-Lys(Ac)-Lys(Ac) as substrate incubated for 90 mins by fluorescence assay
T2 sequence (whole entry): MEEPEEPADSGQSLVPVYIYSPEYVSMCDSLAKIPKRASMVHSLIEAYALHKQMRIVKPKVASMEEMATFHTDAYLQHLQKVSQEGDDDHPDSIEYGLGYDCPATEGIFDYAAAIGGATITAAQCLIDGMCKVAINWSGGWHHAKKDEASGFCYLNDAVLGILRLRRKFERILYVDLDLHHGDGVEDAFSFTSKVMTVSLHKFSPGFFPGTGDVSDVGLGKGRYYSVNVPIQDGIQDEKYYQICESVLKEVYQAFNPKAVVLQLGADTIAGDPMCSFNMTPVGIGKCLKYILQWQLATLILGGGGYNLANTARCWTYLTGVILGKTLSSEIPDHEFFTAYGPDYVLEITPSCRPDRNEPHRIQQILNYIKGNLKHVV

[8] = target: Histone deacetylase 1 (Homo sapiens, UniProt Q13547)
Chain of Histone deacetylase 1 (Q13547 whole entry): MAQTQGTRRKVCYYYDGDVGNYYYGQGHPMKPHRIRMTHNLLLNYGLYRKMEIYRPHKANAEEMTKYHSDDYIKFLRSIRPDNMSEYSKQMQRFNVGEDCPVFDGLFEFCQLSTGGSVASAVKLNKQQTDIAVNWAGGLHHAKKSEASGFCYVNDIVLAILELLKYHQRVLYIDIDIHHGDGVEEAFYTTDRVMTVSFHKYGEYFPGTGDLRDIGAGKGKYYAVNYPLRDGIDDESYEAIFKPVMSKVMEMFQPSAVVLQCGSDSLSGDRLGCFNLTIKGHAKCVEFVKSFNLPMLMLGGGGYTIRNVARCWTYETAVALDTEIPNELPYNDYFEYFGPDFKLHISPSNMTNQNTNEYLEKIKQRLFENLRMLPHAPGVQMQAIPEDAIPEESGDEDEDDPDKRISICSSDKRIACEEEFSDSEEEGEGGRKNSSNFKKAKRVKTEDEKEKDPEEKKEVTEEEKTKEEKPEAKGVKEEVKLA

[9] = Half life in human liver microsomes at 2 uM by LC-MS/MS analysis; type: ADME, Microsome
[10] = Intrinsic clearance in human liver microsomes at 2 uM by LC-MS/MS analysis; type: ADME, Microsome
[11] = Drug level in human liver microsomes treated with 2 uM 4-[(10H-Phenothiazin-10-yl)methyl]-N-hydroxybenzamide assessed as compound formation after 40 mins by LC-MS/MS analysis; type: ADME, Microsome
[12] = system: HepaRG; assay: (§1) Cytotoxicity against human HepaRG cells assessed as cell viability at 100 uM after 24 hrs by CellTiter blue-reagent based assay relative to control; conditions: heparg, 24 h, 100 µM
[13] = target: Histone deacetylase 4 (Homo sapiens) (UniProt P56524); assay: Inhibition of recombinant N-terminal GST/His-tagged human HDAC4 (627 to 1084 residues) expressed in baculovirus expression system at 10 uM using fluorogenic ZMTFAL as substrate incubated for 90 mins by fluorescence assay relative to control
Chain of Histone deacetylase 4 (Homo sapiens) (P56524 whole entry, the tested form may be a part): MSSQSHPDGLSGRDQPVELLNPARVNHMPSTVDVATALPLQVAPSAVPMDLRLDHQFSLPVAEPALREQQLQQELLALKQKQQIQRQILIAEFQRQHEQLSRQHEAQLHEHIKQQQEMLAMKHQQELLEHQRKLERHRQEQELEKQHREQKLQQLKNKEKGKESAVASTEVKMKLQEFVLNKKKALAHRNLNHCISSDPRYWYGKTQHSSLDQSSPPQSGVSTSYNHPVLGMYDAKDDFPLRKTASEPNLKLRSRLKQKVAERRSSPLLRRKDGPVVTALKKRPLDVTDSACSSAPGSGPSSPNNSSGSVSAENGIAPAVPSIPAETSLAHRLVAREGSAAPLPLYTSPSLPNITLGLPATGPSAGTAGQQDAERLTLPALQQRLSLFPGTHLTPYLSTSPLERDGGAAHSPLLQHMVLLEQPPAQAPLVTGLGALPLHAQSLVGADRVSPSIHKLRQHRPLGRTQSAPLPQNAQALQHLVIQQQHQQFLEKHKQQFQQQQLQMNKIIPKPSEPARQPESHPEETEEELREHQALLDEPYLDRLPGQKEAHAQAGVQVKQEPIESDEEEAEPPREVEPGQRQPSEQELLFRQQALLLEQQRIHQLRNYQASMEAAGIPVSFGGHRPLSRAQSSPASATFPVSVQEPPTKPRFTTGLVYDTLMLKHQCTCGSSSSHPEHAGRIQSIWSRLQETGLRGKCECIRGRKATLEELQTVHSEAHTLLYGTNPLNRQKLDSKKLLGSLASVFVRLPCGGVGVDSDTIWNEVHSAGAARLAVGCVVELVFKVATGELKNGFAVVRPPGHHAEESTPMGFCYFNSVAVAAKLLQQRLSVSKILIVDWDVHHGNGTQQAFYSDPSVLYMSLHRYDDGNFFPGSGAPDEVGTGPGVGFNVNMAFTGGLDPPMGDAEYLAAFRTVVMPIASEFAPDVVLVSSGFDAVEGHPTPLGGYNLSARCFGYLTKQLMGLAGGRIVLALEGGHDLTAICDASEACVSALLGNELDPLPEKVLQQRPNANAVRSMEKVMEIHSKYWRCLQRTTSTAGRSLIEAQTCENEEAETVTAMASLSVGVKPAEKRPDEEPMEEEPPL

[14] = target: T3, CYP1A2 (Homo sapiens, UniProt P05177); assay: Inhibition of human CYP1A2 in human liver microsomes at 10 uM relative to control; type: ADME
T3 sequence (P05177 whole entry): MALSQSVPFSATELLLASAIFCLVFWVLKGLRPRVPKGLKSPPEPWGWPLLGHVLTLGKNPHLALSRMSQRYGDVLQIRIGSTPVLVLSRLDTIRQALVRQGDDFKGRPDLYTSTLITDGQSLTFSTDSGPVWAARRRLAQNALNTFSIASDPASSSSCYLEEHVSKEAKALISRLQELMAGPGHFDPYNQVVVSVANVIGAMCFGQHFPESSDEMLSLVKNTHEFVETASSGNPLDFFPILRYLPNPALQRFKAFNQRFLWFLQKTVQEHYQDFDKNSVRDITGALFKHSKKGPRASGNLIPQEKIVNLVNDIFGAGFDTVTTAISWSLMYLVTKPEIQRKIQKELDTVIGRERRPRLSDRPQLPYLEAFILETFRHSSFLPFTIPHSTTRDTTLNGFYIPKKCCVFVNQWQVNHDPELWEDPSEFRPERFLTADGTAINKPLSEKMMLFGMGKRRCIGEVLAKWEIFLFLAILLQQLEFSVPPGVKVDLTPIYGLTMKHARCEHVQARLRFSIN

[15] = target: CYP2C9 (Homo sapiens, UniProt P11712); assay: Inhibition of human CYP2C9 in human liver microsomes at 10 uM relative to control; type: ADME
Chain of CYP2C9 (P11712 whole entry): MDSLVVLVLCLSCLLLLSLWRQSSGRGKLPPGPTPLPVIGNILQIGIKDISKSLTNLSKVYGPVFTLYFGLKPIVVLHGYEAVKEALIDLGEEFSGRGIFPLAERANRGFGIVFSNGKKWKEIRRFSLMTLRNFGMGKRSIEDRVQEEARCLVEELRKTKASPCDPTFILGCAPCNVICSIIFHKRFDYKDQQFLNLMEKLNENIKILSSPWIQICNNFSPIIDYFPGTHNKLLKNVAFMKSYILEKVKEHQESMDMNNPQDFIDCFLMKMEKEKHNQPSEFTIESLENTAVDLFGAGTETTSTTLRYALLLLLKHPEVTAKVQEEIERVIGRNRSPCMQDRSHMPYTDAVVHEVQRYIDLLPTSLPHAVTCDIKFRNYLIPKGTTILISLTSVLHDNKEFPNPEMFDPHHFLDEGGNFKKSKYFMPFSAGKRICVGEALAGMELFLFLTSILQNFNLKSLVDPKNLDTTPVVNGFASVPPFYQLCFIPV

[16] = target: CYP2C19 (Homo sapiens, UniProt P33261); assay: Inhibition of human CYP2C19 in human liver microsomes at 10 uM relative to control; type: ADME
Chain of CYP2C19 (P33261 whole entry): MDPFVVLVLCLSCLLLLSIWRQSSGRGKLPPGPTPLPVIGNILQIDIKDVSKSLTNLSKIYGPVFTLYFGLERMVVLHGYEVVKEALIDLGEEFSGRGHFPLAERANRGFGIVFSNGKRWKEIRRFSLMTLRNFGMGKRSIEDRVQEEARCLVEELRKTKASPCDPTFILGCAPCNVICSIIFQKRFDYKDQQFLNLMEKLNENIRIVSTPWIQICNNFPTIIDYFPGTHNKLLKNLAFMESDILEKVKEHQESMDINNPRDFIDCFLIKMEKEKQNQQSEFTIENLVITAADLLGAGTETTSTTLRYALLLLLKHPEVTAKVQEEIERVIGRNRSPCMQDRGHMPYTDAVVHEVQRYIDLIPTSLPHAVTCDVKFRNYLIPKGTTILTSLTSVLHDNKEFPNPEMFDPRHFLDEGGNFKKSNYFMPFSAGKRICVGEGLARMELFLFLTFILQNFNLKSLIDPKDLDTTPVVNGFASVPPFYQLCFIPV

[17] = target: CYP2D6 (Homo sapiens, UniProt P10635); assay: Inhibition of human CYP2D6 in human liver microsomes at 10 uM relative to control; type: ADME
Chain of CYP2D6 (P10635 whole entry): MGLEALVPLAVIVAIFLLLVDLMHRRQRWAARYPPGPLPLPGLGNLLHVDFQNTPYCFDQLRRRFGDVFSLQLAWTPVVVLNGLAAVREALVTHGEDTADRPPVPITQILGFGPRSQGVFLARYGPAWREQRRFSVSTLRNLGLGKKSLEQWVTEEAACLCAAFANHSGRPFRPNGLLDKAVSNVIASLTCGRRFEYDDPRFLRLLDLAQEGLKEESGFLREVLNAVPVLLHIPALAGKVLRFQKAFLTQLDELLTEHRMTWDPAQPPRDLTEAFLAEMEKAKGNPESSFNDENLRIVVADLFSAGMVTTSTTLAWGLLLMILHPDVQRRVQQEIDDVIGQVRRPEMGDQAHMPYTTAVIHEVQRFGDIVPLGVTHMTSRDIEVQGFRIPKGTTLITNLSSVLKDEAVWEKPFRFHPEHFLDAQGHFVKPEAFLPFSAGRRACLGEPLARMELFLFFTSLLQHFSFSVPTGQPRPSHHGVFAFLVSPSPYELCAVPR

[18] = target: CYP3A4 (Homo sapiens, UniProt P08684); assay: Inhibition of human CYP3A4 in human liver microsomes at 10 uM relative to control; type: ADME
Chain of CYP3A4 (P08684 whole entry): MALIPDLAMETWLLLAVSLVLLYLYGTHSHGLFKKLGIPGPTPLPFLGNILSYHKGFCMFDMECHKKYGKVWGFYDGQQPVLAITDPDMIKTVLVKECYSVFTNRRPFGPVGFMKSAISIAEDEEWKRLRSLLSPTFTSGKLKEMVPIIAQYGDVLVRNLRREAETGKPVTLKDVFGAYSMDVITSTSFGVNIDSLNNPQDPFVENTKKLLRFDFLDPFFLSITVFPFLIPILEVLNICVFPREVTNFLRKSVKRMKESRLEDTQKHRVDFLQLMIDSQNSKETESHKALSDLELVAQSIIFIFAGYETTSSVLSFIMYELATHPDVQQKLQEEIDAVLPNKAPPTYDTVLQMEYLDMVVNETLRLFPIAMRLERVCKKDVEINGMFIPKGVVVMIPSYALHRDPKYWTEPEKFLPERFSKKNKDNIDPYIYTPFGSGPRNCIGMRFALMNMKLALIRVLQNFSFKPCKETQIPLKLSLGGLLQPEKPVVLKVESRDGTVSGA

[19] = system: T-24; assay: Synergistic potentiation of Bortezomib-induced antiproliferative activity against human T24 cells assessed as effect on cell index, at 1 uM incubated for 24 hrs by cell impedance based assay; type: functional
[20] = Stability in human liver microsomes assessed as compound remaining at 2 uM after 40 mins by LC-MS/MS analysis; type: ADME, Microsome; conditions: read-out: Stability
[21] = Drug metabolism in human liver microsomes assessed as N-Hydroxy-4-[(5-oxido-10H-Phenothiazin-10-yl)methyl]-benzamide formation at 2 uM after 40 mins by LC-MS/MS analysis; type: ADME, Microsome
[22] = Drug metabolism in human liver microsomes assessed as 4-[(5,5-Dioxido-10H-phenothiazin-10-yl)methyl]-N-hydroxybenzamide formation at 2 uM after 40 mins by LC-MS/MS analysis; type: ADME, Microsome
[23] = target: T4, Histone deacetylase 8 (Homo sapiens, UniProt Q9BY41)
T4 sequence (Q9BY41 whole entry): T2 sequence (whole entry)

[24] = as §1; conditions: HepaRG cells, read-out: Activity
[25] = system: Huh-7; assay: Antiproliferative activity against human HuH7 cells assessed as inhibition of cell proliferation at 10 to 100 uM after 72 hrs by CellTiter blue-reagent based assay; type: functional
[26] = system: MDA-MB-231; assay: Antiproliferative activity against human MDA-MB-231 cells assessed as inhibition of cell proliferation at 10 to 100 uM after 72 hrs by CellTiter blue-reagent based assay; type: functional
[27] = system: T-24; assay: Antiproliferative activity against human T24 cells assessed as inhibition of cell proliferation at 10 to 100 uM after 72 hrs by CellTiter blue-reagent based assay; type: functional
[28] = Stability in human liver microsomes assessed as compound remaining at 2 uM measured up to 20 mins by LC-MS/MS analysis; type: ADME, Microsome

IC50 [1]: 7 nM
SMILES: O=C(NO)c1ccc(CN2c3ccccc3Sc3ccncc32)cc1

IC50 [1]: 19 nM
SMILES: O=C(NO)c1ccc(CN2N=CC=C3Sc4ccccc4N=C32)cc1

IC50 [1]: 136 nM
SMILES: O=C(NO)c1ccc(CCN2c3ccccc3Sc3ccccc32)cc1

SMILES: O=C(CCCCCCC(=O)Nc1ccccc1)NO
Activity [2]: Active
Activity [3]: Active
Activity [4]: Active
Activity [5]: Active
Activity [6]: Active

inhibition [7]: 66%
IC50 [8]: 980 nM
IC50 [1]: 32 nM
SMILES: CN1CCC2=C(C1)N(Cc1ccc(C(=O)NO)cc1)c1ccccc1S2

SMILES: Cn1c(=O)c2c(ncn2C)n(C)c1=O [CAFFEINE]
t1/2 [9]: 6.22 h
CLH [10]: 4 µL/min/mg

SMILES: O=C(NO)c1ccc(CN2c3ccccc3Sc3ccc(C(F)(F)F)cc32)cc1
IC50 [8]: 7490 nM
IC50 [1]: 25 nM

SMILES: O=C(CCCCCCC(=O)Nc1ccc([C@H]2O[C@@H](CSc3nc(-c4ccccc4)c(-c4ccccc4)o3)C[C@@H](c3ccc(CO)cc3)O2)cc1)NO [TUBACIN]
IC50 [8]: 1010 nM

IC50 [1]: 37 nM
SMILES: Cc1nc2c(s1)Sc1ccccc1N2Cc1ccc(C(=O)NO)cc1

IC50 [1]: 11 nM
SMILES: O=C(NO)c1ccc(CN2c3ccccc3Sc3ccnnc32)cc1

IC50 [1]: 18 nM
SMILES: O=C(NO)c1ccc(CN2c3ccccc3Sc3cc(Cl)nnc32)cc1

Drug uptake [11]: Active
IC50 [8]: 3990 nM
SMILES: O=C(NO)c1ccc(CN2c3ccccc3S(=O)(=O)c3ccccc32)cc1

SMILES: O=C(NO)c1ccc(CN2c3ccccc3Sc3ccccc32)cc1
Activity [12]: Non-Toxic
inhibition [13]: < 20%
t1/2 [9]: 1.95 h
CLH [10]: 14 µL/min/mg
inhibition at 10 µM [14]: 20%
inhibition at 10 µM [15]: 24.4%
inhibition at 10 µM [16]: 36.4%
inhibition at 10 µM [17]: 45.4%
inhibition at 10 µM [18]: 24.3%
Activity [19]: inactive
remaining at 40 min, 2 µM [20]: 77%
Drug metabolism [21]: Metabolite_Detected
Drug metabolism [22]: Metabolite_Detected
IC50 [8]: 5080 nM
IC50 [23]: 1480 nM

IC50 [1]: 2670 nM
SMILES: O=C(NO)c1ccc(N2c3ccccc3Sc3ccccc32)cc1

IC50 [1]: 17 nM
SMILES: O=C(NO)c1ccc(CN2c3ccccc3Sc3nccnc32)cc1

Drug uptake [11]: Active
IC50 [8]: 6810 nM
IC50 [1]: 77 nM
SMILES: O=C(NO)c1ccc(CN2c3ccccc3[S+]([O-])c3ccccc32)cc1

IC50 [1]: 115 nM
SMILES: O=C(NO)c1ccc(CN2N=C(Cl)C=C3Sc4ccccc4N=C32)cc1

SMILES: O=C(NO)c1ccc(CN2c3ccncc3Sc3ncccc32)cc1
viability at 24 h, 100 µM [24]: 80%
inhibition [13]: < 20%
inhibition [25]: Active
inhibition [26]: Active
inhibition [27]: Active
Activity [19]: inactive
IC50 [8]: 3340 nM
IC50 [1]: 12 nM
IC50 [23]: 2000 nM

SMILES: COc1ccc2c(c1)N(Cc1ccc(C(=O)NO)cc1)c1ccccc1S2
IC50 [8]: 2070 nM
IC50 [1]: 10 nM

IC50 [1]: 14 nM
SMILES: O=C(NO)c1ccc(CN2c3cccnc3Sc3cccnc32)cc1

SMILES: O=C(NO)c1ccc(CN2c3ccccc3Sc3cccc(Cl)c32)cc1
IC50 [8]: 5760 nM
IC50 [1]: 16 nM

IC50 [1]: 9 nM
SMILES: O=C(NO)c1ccc(CN2c3ccncc3Sc3ccncc32)cc1

SMILES: O=C(NO)c1ccc(CN2c3ccccc3Sc3cccnc32)cc1
Activity [12]: Non-Toxic
inhibition [13]: < 20%
t1/2 [9]: 2.47 h
CLH [10]: 11 µL/min/mg
inhibition at 10 µM [14]: 15.2%
inhibition at 10 µM [15]: 3.4%
inhibition at 10 µM [16]: 27.7%
inhibition at 10 µM [17]: 12%
inhibition [25]: Active
inhibition [26]: Active
inhibition [27]: Active
Activity [19]: inactive
Stability [28]: Stable
IC50 [8]: 2690 nM
IC50 [23]: 3100 nM

SMILES: O=C(NO)c1ccc(CN2c3ccccc3Sc3ccc(Cl)cc32)cc1
IC50 [8]: 2950 nM
IC50 [1]: 12 nM

SMILES: CCSc1ccc2c(c1)N(Cc1ccc(C(=O)NO)cc1)c1ccccc1S2
IC50 [8]: 7200 nM
IC50 [1]: 31 nM
